29 compounds from patent publication US11446287B2, “Compounds and methods for EP300 or CBP modulation and indications therefor” (Opna Immuno-Oncology SA, priority 2019, dated 2022) can be followed below.

SMILES strings stand for the structures.

The test deals with T1, Recombinant human BRD4 containing dual bromodomains (BRD4-BD12 (1-477)) (Homo sapiens, UniProt O60885).
T1 construct: Recombinant human BRD4 containing dual bromodomains (BRD4-BD12 (1-477)); made in house; host or cells: E. coli BL21-CodonPlus (DE3), modified pET vector
The experiment in a line: BRD4 Alphascreen binding assay. An outline of the steps:
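His-tagged human BRD4 tandem bromodomains (1-477, E. coli) incubated 1 h at room temperature with biotinylated tetra-acetylated H4 (1-21) peptide and compound in HEPES pH 7.5 buffer with 2 mM DTT. AlphaScreen signal read 30 min after adding beads (7.5 μg/ml); IC50 from four-parameter fit after normalization to controls.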
(In general: In Alpha technology, singlet oxygen from a donor bead excites a nearby acceptor bead.)

For `Cc1noc(C)c1-c1cnc2c(c1)c(-c1ccc(C(=O)O)cc1OC(F)(F)F)cn2-c1ccc(=O)n(C)c1` [P-0399, 4-(5-(3,5-dimethylisoxazol-4-yl)-1-(1-methyl-6-oxo-1,6-dihydropyridin-3-yl)-1H-pyrrolo[2,3-b]pyridin-3-yl)-3-(trifluoromethoxy)benzoic acid], the concentration for half-maximal inhibition (IC50) is 1 to 8 µM.

On to `CCc1noc(C)c1-c1cnc2c(c1)c(-c1ccc(C(=O)O)cc1OC(F)(F)F)cn2C1CCOCC1` [P-0400, 4-(5-(3-ethyl-5-methylisoxazol-4-yl)-1-(tetrahydro-2H-pyran-4-yl)-1H-pyrrolo[2,3-b]pyridin-3-yl)-3-(trifluoromethoxy)benzoic acid], for which the concentration for half-maximal inhibition (IC50) lay in the range of 1 to 8 µM.

Consider `CCc1onc(C)c1-c1cnc2c(c1)c(-c1ccc(C(=O)O)cc1OC(F)(F)F)cn2C1CCOCC1` [P-0401, 4-(5-(5-ethyl-3-methylisoxazol-4-yl)-1-(tetrahydro-2H-pyran-4-yl)-1H-pyrrolo[2,3-b]pyridin-3-yl)-3-(trifluoromethoxy)benzoic acid], for which the IC50 was 1 to 8 µM.

For the compound `Cc1cc(C(=O)O)cc(OC(C)C)c1-c1cn(C2CCOCC2)c2ncc(-c3c(C)noc3C)cc12` [P-0402, 4-(5-(3,5-dimethylisoxazol-4-yl)-1-(tetrahydro-2H-pyran-4-yl)-1H-pyrrolo[2,3-b]pyridin-3-yl)-3-isopropoxy-5-methylbenzoic acid], the 50% inhibitory concentration (IC50) was 1 to 8 µM.

In the case of `Cc1noc(C)c1-c1cnc2c(c1)c(-c1ccc(C(=O)O)cc1OC(C)C)cn2C1(C)CCOCC1` [P-0403, 4-(5-(3,5-dimethylisoxazol-4-yl)-1-(4-methyltetrahydro-2H-pyran-4-yl)-1H-pyrrolo[2,3-b]pyridin-3-yl)-3-isopropoxybenzoic acid], the concentration for half-maximal inhibition (IC50) fell in the range of 8 to 1000 µM.

With `Cc1noc(C)c1-c1cnc2c(c1)c(-c1c(Cl)cc(C(=O)O)cc1OC(C)C)cn2C1(C)CCOCC1` [P-0404, 3-chloro-4-(5-(3,5-dimethylisoxazol-4-yl)-1-(4-methyltetrahydro-2H-pyran-4-yl)-1H-pyrrolo[2,3-b]pyridin-3-yl)-5-isopropoxybenzoic acid], the IC50 was 8 to 1000 µM.

Take `CCOc1nc(C(=O)O)ccc1-c1cn(C2(C)CCOCC2)c2ncc(-c3c(C)noc3C)cc12` [P-0405, 5-(5-(3,5-dimethylisoxazol-4-yl)-1-(4-methyltetrahydro-2H-pyran-4-yl)-1H-pyrrolo[2,3-b]pyridin-3-yl)-6-ethoxypicolinic acid]: the IC50 lay in the range of 1 to 8 µM.

In the case of `CCOc1nc(C(=O)O)c(Cl)cc1-c1cn([C@H]2CCOC2)c2ncc(-c3c(C)noc3C)cc12` [P-0406, (S)-3-chloro-5-(5-(3,5-dimethylisoxazol-4-yl)-1-(tetrahydrofuran-3-yl)-1H-pyrrolo[2,3-b]pyridin-3-yl)-6-ethoxypicolinic acid], the IC50 was in the range of 8 to 1000 µM.

As for `Cc1noc(C)c1-c1cnc2c(c1)c(-c1ccc(C(=O)O)cc1OC(C)C)cn2C1(C)CCOC1` (centres unmarked) [P-0407, 4-(5-(3,5-dimethylisoxazol-4-yl)-1-(3-methyltetrahydrofuran-3-yl)-1H-pyrrolo[2,3-b]pyridin-3-yl)-3-isopropoxybenzoic acid], the IC50 was 8 to 1000 µM.

For the compound `Cc1noc(C)c1-c1cnc2c(c1)c(-c1c(Cl)cc(C(=O)O)cc1OC(C)C)cn2C1(C)CCOC1` (centres unmarked) [P-0408, 3-chloro-4-(5-(3,5-dimethylisoxazol-4-yl)-1-(3-methyltetrahydrofuran-3-yl)-1H-pyrrolo[2,3-b]pyridin-3-yl)-5-isopropoxybenzoic acid], the 50% inhibitory concentration (IC50) lay within 8 to 1000 µM.

Regarding `Cc1noc(C)c1-c1cnc2c(c1)c(-c1c(Cl)cc(C(=O)O)cc1OC1CC1)cn2-c1ncccc1C#N` [P-0409, 3-chloro-4-(1-(3-cyanopyridin-2-yl)-5-(3,5-dimethylisoxazol-4-yl)-1H-pyrrolo[2,3-b]pyridin-3-yl)-5-cyclopropoxybenzoic acid], the 50% inhibitory concentration (IC50) is 1 to 8 µM.

With `Cc1noc(C)c1-c1cnc2c(c1)c(-c1c(F)cc(C(=O)O)cc1OC1CCC1)cn2C1CCOCC1` [P-0410, 3-cyclobutoxy-4-(5-(3,5-dimethylisoxazol-4-yl)-1-(tetrahydro-2H-pyran-4-yl)-1H-pyrrolo[2,3-b]pyridin-3-yl)-5-fluorobenzoic acid], the IC50 was in the range of 8 to 1000 µM.

For `CCOc1nc(C(=O)O)cc(C)c1-c1cn(C2CCOCC2)c2ncc(-c3c(C)noc3C)cc12` [P-0411, 5-(5-(3,5-dimethylisoxazol-4-yl)-1-(tetrahydro-2H-pyran-4-yl)-1H-pyrrolo[2,3-b]pyridin-3-yl)-6-ethoxy-4-methylpicolinic acid], the IC50 lay within 8 to 1000 µM.

With `CCOc1nc(C(=O)O)cc(C)c1-c1cn(-c2ccc(F)cc2F)c2ncc(-c3c(C)noc3C)cc12` [P-0412, 5-(1-(2,4-difluorophenyl)-5-(3,5-dimethylisoxazol-4-yl)-1H-pyrrolo[2,3-b]pyridin-3-yl)-6-ethoxy-4-methylpicolinic acid], the IC50 fell in the range of 1 to 8 µM.

Turning to `Cc1nnn(C)c1-c1cnc2c(c1)c(-c1ccc(C(=O)O)cc1OC1CC1)cn2C1CCOCC1` [P-0413, 3-cyclopropoxy-4-(5-(1,4-dimethyl-1H-1,2,3-triazol-5-yl)-1-(tetrahydro-2H-pyran-4-yl)-1H-pyrrolo[2,3-b]pyridin-3-yl)benzoic acid], the IC50 was in the range of 1 to 8 µM.

Turning to `CCOc1cc(C(=O)O)nc(OCC)c1-c1cn(-c2ccccc2F)c2ncc(-c3c(C)noc3C)cc12` [P-0414, 5-(5-(3,5-dimethylisoxazol-4-yl)-1-(2-fluorophenyl)-1H-pyrrolo[2,3-b]pyridin-3-yl)-4,6-diethoxypicolinic acid], the half-inhibitory concentration (IC50) lay within 1 to 8 µM.

As to `CCOc1cc(C(=O)O)nc(OCC)c1-c1cn([C@@H](C)c2ccccn2)c2ncc(-c3c(C)noc3C)cc12` [P-0415, (S)-5-(5-(3,5-dimethylisoxazol-4-yl)-1-(1-(pyridin-2-yl)ethyl)-1H-pyrrolo[2,3-b]pyridin-3-yl)-4,6-diethoxypicolinic acid], the IC50 is 8 to 1000 µM.

As for `CCOc1nc(C(=O)O)c(C)cc1-c1cn(C(C2CC2)C2CC2)c2ncc(-c3c(C)noc3C)cc12` [P-0416, 5-(1-(dicyclopropylmethyl)-5-(3,5-dimethylisoxazol-4-yl)-1H-pyrrolo[2,3-b]pyridin-3-yl)-6-ethoxy-3-methylpicolinic acid], the IC50 was in the range of 8 to 1000 µM.

Turning to `CCOc1nc(C(=O)O)cc(C)c1-c1cn(C(C2CC2)C2CC2)c2ncc(-c3c(C)noc3C)cc12` [P-0417, 5-(1-(dicyclopropylmethyl)-5-(3,5-dimethylisoxazol-4-yl)-1H-pyrrolo[2,3-b]pyridin-3-yl)-6-ethoxy-4-methylpicolinic acid], the IC50 lay within 8 to 1000 µM.

On to `Cc1noc(C)c1-c1cnc2c(c1)c(-c1ccnc(C(=O)O)c1C)cn2C(C1CC1)C1CC1` [P-0418, 4-(1-(dicyclopropylmethyl)-5-(3,5-dimethylisoxazol-4-yl)-1H-pyrrolo[2,3-b]pyridin-3-yl)-3-methylpicolinic acid], for which the half-maximal inhibitory concentration (IC50) lay in the range of 0.0001 to 1 µM.

Regarding `Cc1noc(C)c1-c1cnc2c(c1)c(-c1ccnc(C(=O)O)c1C)cn2C1CCOCC1` [P-0419, 4-(5-(3,5-dimethylisoxazol-4-yl)-1-(tetrahydro-2H-pyran-4-yl)-1H-pyrrolo[2,3-b]pyridin-3-yl)-3-methylpicolinic acid], the IC50 lay in the range of 0.0001 to 1 µM.

`CCOc1cc(C(=O)O)nc(OCC)c1-c1cn(C(C2CC2)C2CC2)c2ncc(-c3c(C)noc3C)cc12` [P-0420, 5-(1-(dicyclopropylmethyl)-5-(3,5-dimethylisoxazol-4-yl)-1H-pyrrolo[2,3-b]pyridin-3-yl)-4,6-diethoxypicolinic acid]: the IC50 is 8 to 1000 µM.

In the case of `CCOc1cc(C(=O)O)nc(OCC)c1-c1cn(-c2ncccc2C#N)c2ncc(-c3c(C)noc3C)cc12` [P-0421, 5-(1-(3-cyanopyridin-2-yl)-5-(3,5-dimethylisoxazol-4-yl)-1H-pyrrolo[2,3-b]pyridin-3-yl)-4,6-diethoxypicolinic acid], the 50% inhibitory concentration (IC50) lay within 8 to 1000 µM.

For `CCOc1cc(C(=O)O)nc(OCC)c1-c1cn(-c2ncccc2C(N)=O)c2ncc(-c3c(C)noc3C)cc12` [P-0422, 5-(1-(3-carbamoylpyridin-2-yl)-5-(3,5-dimethylisoxazol-4-yl)-1H-pyrrolo[2,3-b]pyridin-3-yl)-4,6-diethoxypicolinic acid], the half-inhibitory concentration (IC50) is 8 to 1000 µM.

On to `CCOc1cc(C(=O)O)nc(OCC)c1-c1cn(-c2ccc(C#N)cc2F)c2ncc(-c3c(C)noc3C)cc12` [P-0423, 5-(1-(4-cyano-2-fluorophenyl)-5-(3,5-dimethylisoxazol-4-yl)-1H-pyrrolo[2,3-b]pyridin-3-yl)-4,6-diethoxypicolinic acid], for which the IC50 was 1 to 8 µM.

`CCOc1cc(C(=O)O)nc(OCC)c1-c1cn(-c2cnc(C3CC3)nc2)c2ncc(-c3c(C)noc3C)cc12` [P-0424, 5-(1-(2-cyclopropylpyrimidin-5-yl)-5-(3,5-dimethylisoxazol-4-yl)-1H-pyrrolo[2,3-b]pyridin-3-yl)-4,6-diethoxypicolinic acid]: the concentration for half-maximal inhibition (IC50) was 1 to 8 µM.

Regarding `CCOc1cc(C(=O)O)nc(OCC)c1-c1cn(C2CCC(F)(F)CC2)c2ncc(-c3c(C)noc3C)cc12` [P-0425, 5-(1-(4,4-difluorocyclohexyl)-5-(3,5-dimethylisoxazol-4-yl)-1H-pyrrolo[2,3-b]pyridin-3-yl)-4,6-diethoxypicolinic acid], the IC50 lay in the range of 8 to 1000 µM.

As for `CCOc1cc(C(=O)O)ncc1-c1cn(C(C2CC2)C2CC2)c2ncc(-c3c(C)noc3C)cc12` [P-0427, 5-(1-(dicyclopropylmethyl)-5-(3,5-dimethylisoxazol-4-yl)-1H-pyrrolo[2,3-b]pyridin-3-yl)-4-ethoxypicolinic acid], the concentration for half-maximal inhibition (IC50) was 1 to 8 µM.

Consider `CCOc1cc(C(=O)O)ncc1-c1cn(C2CCOCC2)c2ncc(-c3c(C)noc3C)cc12` [P-0428, 5-(5-(3,5-dimethylisoxazol-4-yl)-1-(tetrahydro-2H-pyran-4-yl)-1H-pyrrolo[2,3-b]pyridin-3-yl)-4-ethoxypicolinic acid], for which the IC50 is 0.0001 to 1 µM.

By IC50 is commonly meant the concentration at which inhibition is half-maximal.
